Test results taken from patent US8513270B2, “Substituted heterocycles as Janus kinase inhibitors” (Incyte Corporation, priority 2006, dated 2013).
Counter-ions that a name gives are not always drawn.

Columns and labels:
[1] = target: TF1-BCRABL1 cells (Homo sapiens, UniProt P00519); assay: ABL1 cell based assay: viability of ABL1-dependent cell line (CellTiter-Glo); settings: 72 hours, cell viability; read-out: EXAMPLE F JAK2-TF1-BCRABL1 IC50
Procedure: One or more compounds herein were tested for inhibitory activity of ABL1 targets according to at least one of the following cellular assays.
Cancer cell lines dependent on ABL1 kinase activity for proliferation and/or survival were plated at 3000 cells per well (96 well plate format) in RPMI 1640, and 10% FBS. Compounds were added to the cells in DMSO/media (final concentration 0.2% DMSO) and incubated for 72 hours at 37° C., 5% CO2. The effect of compound on cell viability was assessed using the CellTiter-Glo Luminescent Cell Viability Assay (Promega) followed by TopCount (Perkin Elmer, Boston, Mass.) quantitation. ABL1-dependent cell lines can include those naturally dependent on ABL1 activity or those engineered to be dependent on ABL1 activity (e.g. BaF/3 cells). The latter can be generated using wild-type ABL1 or mutant ABL1 (such as T315I ABL1) so that the activity of compounds can be assessed against different variants of the ABL1 kinase. Potential off-target effects of compounds were measured in parallel using a non-ABL1 driven cell line with the same assay readout. […] All experiments were performed in duplicate or greater.

[2] = target: T1, human JAK3 (a.a. 781-1124) (Homo sapiens, UniProt P52333); assay: In vitro JAK kinase assay (HTRF), JAK3; format: biochemical; settings: JAK3, 3 μM ATP; read-out: EXAMPLE A JAK2-JAK3 HTRF-2 IC50
T1 construct: JAK3 (a.a. 781-1124); His tag (N); made in house; host or cells: insect cells (baculovirus)
Procedure: (§1) Compounds herein were tested for inhibitory activity of JAK targets according to the following in vitro assay described in Park et al., Analytical Biochemistry 1999, 269, 94-104. The catalytic domains of human JAK1 (a.a. 837-1142), JAK2 (a.a. 828-1132) and JAK3 (a.a. 781-1124) with an N-terminal His tag were expressed using baculovirus in insect cells and purified. The catalytic activity of JAK1, JAK2 or JAK3 was assayed by measuring the phosphorylation of a biotinylated peptide. The phosphorylated peptide was detected by homogenous time resolved fluorescence (HTRF). IC50s of compounds were measured for each kinase in the reactions that contain the enzyme, ATP and 500 nM peptide in 50 mM Tris (pH 7.8) buffer with 100 mM NaCl, 5 mM DTT, and 0.1 mg/mL (0.01%) BSA. The ATP concentration in the reactions was 90 μM for JAK1, 30 μM for JAK2 and 3 μM for JAK3. Reactions were carried out at room temperature for 1 hr and then stopped with 20 μL 45 mM EDTA, 300 nM SA-APC, 6 nM Eu—Py20 in assay buffer (Perkin Elmer, Boston, Mass.). Binding to the Europium labeled antibody took place for 40 minutes and HTRF signal was measured on a Fusion plate reader (Perkin Elmer, Boston, Mass.).

[3] = target: T2, human JAK1 (a.a. 837-1142) (Homo sapiens, UniProt P23458); assay: In vitro JAK kinase assay (HTRF), JAK1; format: biochemical; settings: JAK1, 90 μM ATP; read-out: EXAMPLE A JAK2-JAK1 HTRF-2 IC50
T2 construct: human JAK1 (a.a. 837-1142); His tag (N); made in house; host or cells: insect cells (baculovirus)
Procedure: as §1

[4] = target: T3, human JAK2 (a.a. 828-1132) (Homo sapiens, UniProt O60674); assay: In vitro JAK kinase assay (HTRF), JAK2; format: biochemical; settings: JAK2, 30 μM ATP; read-out: EXAMPLE A HTS-JAK2 HTRF-2 IC50
T3 construct: JAK2 (a.a. 828-1132); His tag (N); made in house; host or cells: insect cells (baculovirus)
Procedure: as §1

T2 sequence (P23458 849-1154): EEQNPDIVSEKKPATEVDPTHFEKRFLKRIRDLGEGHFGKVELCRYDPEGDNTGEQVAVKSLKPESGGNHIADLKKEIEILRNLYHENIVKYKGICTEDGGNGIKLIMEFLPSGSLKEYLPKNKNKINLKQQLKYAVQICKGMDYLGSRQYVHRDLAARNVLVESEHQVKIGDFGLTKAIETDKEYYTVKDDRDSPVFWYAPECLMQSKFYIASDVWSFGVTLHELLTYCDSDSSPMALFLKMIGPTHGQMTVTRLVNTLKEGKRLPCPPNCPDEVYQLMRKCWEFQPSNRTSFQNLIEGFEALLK
Chain of TF1-BCRABL1 cells (P00519 whole entry, change not shown): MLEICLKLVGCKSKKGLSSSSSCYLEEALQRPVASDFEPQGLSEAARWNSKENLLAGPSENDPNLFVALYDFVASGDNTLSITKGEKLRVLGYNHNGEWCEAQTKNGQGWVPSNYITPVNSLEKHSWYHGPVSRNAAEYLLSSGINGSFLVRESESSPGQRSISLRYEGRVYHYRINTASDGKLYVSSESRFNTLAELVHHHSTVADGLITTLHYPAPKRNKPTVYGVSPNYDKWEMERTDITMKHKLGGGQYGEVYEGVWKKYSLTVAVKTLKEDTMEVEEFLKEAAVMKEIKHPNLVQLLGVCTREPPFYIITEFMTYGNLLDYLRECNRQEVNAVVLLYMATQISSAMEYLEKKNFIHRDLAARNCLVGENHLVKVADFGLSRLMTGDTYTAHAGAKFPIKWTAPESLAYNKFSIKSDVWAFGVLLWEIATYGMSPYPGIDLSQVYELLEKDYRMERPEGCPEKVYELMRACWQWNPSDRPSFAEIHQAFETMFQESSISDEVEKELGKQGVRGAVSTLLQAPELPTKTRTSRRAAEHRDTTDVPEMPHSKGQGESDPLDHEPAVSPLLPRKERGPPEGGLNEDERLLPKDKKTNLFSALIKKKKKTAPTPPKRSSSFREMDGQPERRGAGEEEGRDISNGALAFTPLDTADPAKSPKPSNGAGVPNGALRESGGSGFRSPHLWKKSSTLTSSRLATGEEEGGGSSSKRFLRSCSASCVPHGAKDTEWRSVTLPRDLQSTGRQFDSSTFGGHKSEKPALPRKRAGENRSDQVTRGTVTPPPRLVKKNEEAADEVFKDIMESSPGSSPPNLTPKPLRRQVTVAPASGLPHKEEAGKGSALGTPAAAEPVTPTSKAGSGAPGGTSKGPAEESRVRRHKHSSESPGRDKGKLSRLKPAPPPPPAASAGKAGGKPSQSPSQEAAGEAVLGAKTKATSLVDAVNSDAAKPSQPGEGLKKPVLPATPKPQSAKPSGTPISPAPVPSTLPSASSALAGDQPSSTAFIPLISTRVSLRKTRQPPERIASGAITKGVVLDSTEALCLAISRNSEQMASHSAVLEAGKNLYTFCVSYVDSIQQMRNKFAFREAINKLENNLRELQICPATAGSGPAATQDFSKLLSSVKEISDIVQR
T1 sequence (P52333 781-1124): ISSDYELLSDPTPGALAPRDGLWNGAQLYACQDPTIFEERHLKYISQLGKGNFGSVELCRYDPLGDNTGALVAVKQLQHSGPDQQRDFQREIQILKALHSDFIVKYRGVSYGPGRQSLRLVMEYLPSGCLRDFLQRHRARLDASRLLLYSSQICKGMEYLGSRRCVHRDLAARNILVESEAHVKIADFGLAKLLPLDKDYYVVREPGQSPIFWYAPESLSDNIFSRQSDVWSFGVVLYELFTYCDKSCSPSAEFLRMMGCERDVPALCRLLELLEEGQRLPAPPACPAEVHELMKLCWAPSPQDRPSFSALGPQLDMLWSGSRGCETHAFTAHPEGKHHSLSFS
T3 sequence (O60674 828-1132): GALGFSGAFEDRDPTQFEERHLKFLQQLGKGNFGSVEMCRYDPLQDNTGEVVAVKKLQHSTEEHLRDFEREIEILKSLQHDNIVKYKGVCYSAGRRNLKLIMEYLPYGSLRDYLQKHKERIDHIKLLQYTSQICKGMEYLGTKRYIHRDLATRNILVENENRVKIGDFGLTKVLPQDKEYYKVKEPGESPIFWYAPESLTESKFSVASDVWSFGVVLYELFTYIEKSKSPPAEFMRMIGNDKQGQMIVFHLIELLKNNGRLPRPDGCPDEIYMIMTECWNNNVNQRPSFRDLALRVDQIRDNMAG

Cc1ccc(NC(=O)c2cc(C(F)(F)F)ccn2)cc1-c1ccc2c(c1)[nH]c1ncncc12 [Example 18, N-[4-methyl-3-(9H-pyrimido[4,5-b]indol-7-yl)-phenyl]-4-(trifluoromethyl) pyridine-2-carboxamide]
≤ 500 nM: GI50 [1] | IC50 [2] | IC50 [3] | IC50 [4]

Cc1ccc(NC(=O)c2cc(N3CCCC(O)C3)cc(C(F)(F)F)c2)cc1-c1ccc2c(c1)[nH]c1ncncc12 (centres unmarked) [Example 30, 3-(3-hydroxypiperidin-1-yl)-N-[4-methyl-3-(9H-pyrimido[4,5-b]indol-7-yl)phenyl]-5-(trifluoromethyl)benzamide]
≤ 500 nM: GI50 [1] | IC50 [2] | IC50 [3] | IC50 [4]

Cc1ccc(NC(=O)c2cc(NCCN3CCOCC3)cc(C(F)(F)F)c2)cc1-c1ccc2c(c1)[nH]c1ncncc12 [Example 31, N-[4-methyl-3-(9H-pyrimido-[4,5-b]indol-7-yl)phenyl]-3-[(2-morpholin-4-ylethyl)amino]-5-(trifluoromethyl)benzamide]
≤ 500 nM: GI50 [1] | IC50 [2] | IC50 [3] | IC50 [4]

Cc1ncc(NC(=O)c2cc(NCCN(C)C)cc(C(F)(F)F)c2)cc1-c1ccc2c(c1)[nH]c1ncncc12 [Example 76, 3-[2-(dimethylamino)ethyl]amino-N-[6-methyl-5-(9H-pyrimido[4,5-b]indol-7-yl)pyridin-3-yl]-5-(trifluoromethyl)benzamide tris(trifluoroacetate)]
≤ 500 nM: GI50 [1] | IC50 [2] | IC50 [3] | IC50 [4]

Cc1ccc(NC(=O)c2cc(N3CCC(O)CC3)cc(C(F)(F)F)c2)cc1-c1ccc2c(c1)[nH]c1ncncc12 [Example 29, 3-(4-hydroxypiperidin-1-yl)-N-[4-methyl-3-(9H-pyrimido[4,5-b]indol-7-yl)phenyl]-5-(trifluoromethyl)benzamide]
≤ 500 nM: GI50 [1] | IC50 [2] | IC50 [3] | IC50 [4]

Cc1ccc(NC(=O)c2cc(-n3cnc(CO)c3)cc(C(F)(F)F)c2)cc1-c1ccc2c(c1)[nH]c1ncncc12 [Example 21, 3-[4-(Hydroxymethyl)-1H-imidazol-1-yl]-N-[4-methyl-3-(9H-pyrimido[4,5-b]indol-7-yl)phenyl]-5-(trifluoromethyl)benzamide bis(trifluoroacetate) (salt)]
≤ 500 nM: GI50 [1] | IC50 [2] | IC50 [3] | IC50 [4]

Cc1ccc(NC(=O)c2cc(-n3cncn3)cc(C(F)(F)F)c2)cc1-c1ccc2c(c1)[nH]c1ncncc12 [Example 24, N-[4-methyl-3-(9H-pyrimido-[4,5-b]indol-7-yl)phenyl]-3-(1H-1,2,4-triazol-1-yl)-5-(trifluoromethyl)benzamide]
≤ 500 nM: GI50 [1] | IC50 [2] | IC50 [3] | IC50 [4]

Cc1ccc(NC(=O)c2cc(-n3ccnc3)cc(C(F)(F)F)c2)cc1-c1ccc2c(c1)[nH]c1ncncc12 [Example 23, 3-(1H-imidazol-1-yl)-N-[4-methyl-3-(9H-pyrimido[4,5-b]-indol-7-yl)phenyl]-5-(trifluoromethyl)benzamide]
≤ 500 nM: GI50 [1] | IC50 [2] | IC50 [3] | IC50 [4]

Cc1ccc(NC(=O)c2cc(C(F)(F)F)cc(Cl)c2F)cc1-c1ccc2c(c1)[nH]c1ncncc12 [Example 8, 3-chloro-2-fluoro-N-[4-methyl-3-(9H-pyrimido[4,5-b]-indol-7-yl)phenyl]-5-(trifluoro-methyl)benzamide]
≤ 500 nM: GI50 [1] | IC50 [2] | IC50 [3] | IC50 [4]

Cc1ccc(NC(=O)c2ccc(F)c(C(F)(F)F)c2)cc1-c1ccc2c(c1)[nH]c1ncncc12 [Example 4, 4-fluoro-N-[4-methyl-3-(9H-pyrimido[4,5-b]indol-7-yl)-phenyl]-3-(trifluoromethyl)benzamide]
≤ 500 nM: GI50 [1] | IC50 [2] | IC50 [3] | IC50 [4]

COc1ccc(C(=O)Nc2ccc(C)c(-c3ccc4c(c3)[nH]c3ncncc34)c2)cc1C(F)(F)F [Example 10, 4-methoxy-N-[4-methyl-3-(9H-pyrimido[4,5-b]indol-7-yl)-phenyl]-3-(trifluoromethyl)-benzamide]
≤ 500 nM: GI50 [1] | IC50 [2] | IC50 [3] | IC50 [4]

Cc1ncc(NC(=O)c2cc(-n3ccnc3)cc(C(F)(F)F)c2)cc1-c1ccc2c(c1)[nH]c1ncncc12 [Example 72, 3-(1H-imidazol-1-yl)-N-[6-methyl-5-(9H-pyrimido[4,5-b]indol-7-yl)pyridin-3-yl]-5-(trifluoromethyl)benzamide tris(trifluoroacetate)]
≤ 500 nM: GI50 [1] | IC50 [2] | IC50 [3] | IC50 [4]

Cc1ccc(NC(=O)c2cc(N3CCOCC3)cc(C(F)(F)F)c2)cc1-c1ccc2c(c1)[nH]c1ncncc12 [Example 27, N-[4-methyl-3-(9H-pyrimido-[4,5-b]indol-7-yl)phenyl]-3-morpholin-4-yl-5-(trifluoromethyl)benzamide]
≤ 500 nM: GI50 [1] | IC50 [2] | IC50 [3] | IC50 [4]

CNCc1cn(-c2cc(C(=O)Nc3ccc(C)c(-c4ccc5c(c4)[nH]c4ncncc45)c3)cc(C(F)(F)F)c2)cn1 [Example 22, 3-4-[(Methylamino)methyl]-1H-imidazol-1-yl-N-[4-methyl-3-(9H-pyrimido[4,5-b]-indol-7-yl)phenyl]-5-(trifluoromethyl)benzamide tris(trifluoroacetate)]
≤ 500 nM: GI50 [1] | IC50 [2] | IC50 [3] | IC50 [4]

Cc1ccc(NC(=O)c2cc(N3CCC(O)C3)cc(C(F)(F)F)c2)cc1-c1ccc2c(c1)[nH]c1ncncc12 (centres unmarked) [Example 34, 3-(3-hydroxypyrrolidin-1-yl)-N-[4-methyl-3-(9H-pyrimido-[4,5-b]indol-7-yl)phenyl]-5-(trifluoromethyl)benzamide]
≤ 500 nM: GI50 [1] | IC50 [2] | IC50 [3] | IC50 [4]

O=C(Nc1ccc(Cl)c(-c2ccc3c(c2)[nH]c2ncncc23)c1)c1cccc(C(F)(F)F)c1 [Example 17, N-[4-chloro-3-(9H-pyrimido-[4,5-b]indol-7-yl)phenyl]-3-(trifluoromethyl)benzamide]
≤ 500 nM: GI50 [1] | IC50 [2] | IC50 [3] | IC50 [4]

Cc1ccc(NC(=O)c2cc(-n3cnc(CN(C)C)c3)cc(C(F)(F)F)c2)cc1-c1ccc2c(c1)[nH]c1ncncc12 [Example 25, 3-{4-[(dimethylamino)methyl]-1H-imidazol-1-yl}-N-[4-methyl-3-(9H-pyrimido[4,5-b]-indol-7-yl)phenyl]-5-(trifluoro-methyl)benzamide]
≤ 500 nM: GI50 [1] | IC50 [2] | IC50 [3] | IC50 [4]
